Read-outs that look alike come from different tables or passages of the source.

One experiment deals with rat. Put plainly: Low-intensity tail flick test (rat). It is filed as in vivo. The settings on record: po, peroral. As to the method:
Method II. Low-Intensity Tail Flick Test (Rat)
In the low-intensity tail flick test, the determination of the antinociceptive effect of the compounds according to the invention towards an acute noxious thermal stimulus is carried out by measuring the withdrawal reflex of the rat tail (tail flick) in response to a radiant heat beam (analgesia meter; model 2011 of the company Rhema Labortechnik, Hofheim, Germany) according to the method described by D'Amour and Smith (J. Pharm. Exp. Ther. 72, 74 79 (1941). To this end, the rats were placed in a plexiglass restrainer, and a low-intensity radiant heat beam (48° C.) was focused onto the dorsal surface of the tail root. The stimulus intensity was adjusted to result in a mean pre-drug control withdrawal latency of about 7 s, thus also allowing a supraspinal modulation of the spinally mediated acute nociceptive reflex. A cutoff time of 30 s was applied to avoid tissue damage. Male Sprague-Dawley rats (Janvier, Le Genest St. Isle, Frankreich) with weights of 200-250 g were used. 10 rats were used per group. Before administration of a compound according to the invention, the animals were pre-tested twice in the course of five minutes and the mean of these measurements was calculated as the pre-test mean. The antinociceptive effect was determined at 20, 40 and 60 min after peroral compound administration. The antinociceptive effect was calculated based on the increase in the tail withdrawal latency according to the following formula and is expressed as percentage of the maximum possible effect (MPE [%]): MPE=[(T1−T0)/(T2−T0)]*100
In this, T0 is the control latency time before and T1 the latency time after administration of the compound, T2 is the cutoff time and MPE is the maximum possible effect. Employing variant analysis (repeated measures ANOVA) allowed testing of statistically significant differences between the compounds according to the invention and the vehicle group. The significance level was set to p≦0.05. To determine the dose dependency, the particular compound according to the invention was administered in 3-5 logarithmically increasing doses, including a threshold dose and a maximum effective dose, and the ED50 values were determined with the aid of regression analysis. The ED50 calculation was performed at the time of maximum efficacy (usually 20 min after administration of the compounds).
For orientation: In hot-plate and tail-flick tests a longer latency is read as antinociception.

The target of another experiment is T1, KCNQ2/3 channels (Homo sapiens, UniProt O43525+O43526).
T1 construct: expressed in transfected cells
T1 sequence (O43526 whole entry): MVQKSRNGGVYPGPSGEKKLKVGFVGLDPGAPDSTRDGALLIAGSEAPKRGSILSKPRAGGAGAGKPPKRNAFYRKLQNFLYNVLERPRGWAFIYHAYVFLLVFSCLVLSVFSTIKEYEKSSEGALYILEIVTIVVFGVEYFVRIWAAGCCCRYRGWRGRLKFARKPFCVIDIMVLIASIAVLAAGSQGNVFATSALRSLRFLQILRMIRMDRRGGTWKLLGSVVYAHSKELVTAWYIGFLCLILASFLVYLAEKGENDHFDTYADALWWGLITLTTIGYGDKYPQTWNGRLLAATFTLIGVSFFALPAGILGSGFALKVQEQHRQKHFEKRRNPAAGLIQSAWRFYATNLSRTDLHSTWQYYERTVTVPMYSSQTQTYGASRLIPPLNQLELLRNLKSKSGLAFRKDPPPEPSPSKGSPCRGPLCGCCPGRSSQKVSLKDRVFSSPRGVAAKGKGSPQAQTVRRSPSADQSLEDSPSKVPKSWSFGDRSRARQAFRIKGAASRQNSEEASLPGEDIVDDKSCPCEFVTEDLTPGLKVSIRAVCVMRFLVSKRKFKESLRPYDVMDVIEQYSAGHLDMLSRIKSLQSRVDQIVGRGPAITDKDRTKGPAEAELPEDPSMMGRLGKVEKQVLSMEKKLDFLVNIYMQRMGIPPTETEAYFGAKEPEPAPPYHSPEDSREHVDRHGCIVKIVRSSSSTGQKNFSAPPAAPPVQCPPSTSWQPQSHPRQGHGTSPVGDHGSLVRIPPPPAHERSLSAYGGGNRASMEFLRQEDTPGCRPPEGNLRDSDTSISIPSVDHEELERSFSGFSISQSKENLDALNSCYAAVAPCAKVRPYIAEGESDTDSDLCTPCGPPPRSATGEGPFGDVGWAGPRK
T1 sequence (O43525 whole entry): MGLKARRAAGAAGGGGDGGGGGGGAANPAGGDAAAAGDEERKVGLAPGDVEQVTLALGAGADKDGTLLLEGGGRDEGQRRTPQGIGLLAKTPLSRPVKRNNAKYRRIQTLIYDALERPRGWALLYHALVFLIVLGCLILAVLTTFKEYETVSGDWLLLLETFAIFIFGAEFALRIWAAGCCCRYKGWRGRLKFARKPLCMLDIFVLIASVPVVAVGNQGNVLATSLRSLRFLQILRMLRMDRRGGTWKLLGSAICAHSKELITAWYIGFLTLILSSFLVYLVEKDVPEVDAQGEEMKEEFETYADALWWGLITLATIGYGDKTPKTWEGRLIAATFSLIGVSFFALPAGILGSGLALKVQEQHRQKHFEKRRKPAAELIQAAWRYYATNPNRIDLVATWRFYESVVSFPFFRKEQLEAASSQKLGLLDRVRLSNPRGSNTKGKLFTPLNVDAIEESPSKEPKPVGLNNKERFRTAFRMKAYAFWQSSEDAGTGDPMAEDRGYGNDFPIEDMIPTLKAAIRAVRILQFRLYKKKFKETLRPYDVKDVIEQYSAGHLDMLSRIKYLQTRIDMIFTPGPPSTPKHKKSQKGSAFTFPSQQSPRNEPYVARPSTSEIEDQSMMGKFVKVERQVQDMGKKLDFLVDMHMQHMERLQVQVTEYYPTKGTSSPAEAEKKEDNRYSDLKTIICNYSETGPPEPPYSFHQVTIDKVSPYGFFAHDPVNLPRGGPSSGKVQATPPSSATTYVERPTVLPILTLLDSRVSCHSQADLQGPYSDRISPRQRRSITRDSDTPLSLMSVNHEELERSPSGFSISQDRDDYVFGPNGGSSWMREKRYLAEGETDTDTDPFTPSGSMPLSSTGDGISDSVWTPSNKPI
Put plainly: Fluorescence assay using a voltage sensitive dye (fluorimetry). In kind it is cell-based.

Where [1] appears, read: CHO-K1, plateau effect relative to saturated retigabine (50 μM) = 100%, CHO-K1 cells expressing KCNQ2/3, negative values = antagonistic, read-out: Fluorimetry % efficacy (retigabine = 100%).
[2] abbreviates: CHO-K1 cells expressing KCNQ2/3, IC50 where % efficacy is negative, read-out: Fluorimetry EC50/IC50.
Setting [3] is: MPE = % of maximum possible effect.
The mark [4] stands for this setting: CHO-K1, read-out: Fluorimetry % efficacy (retigabine = 100%).

Compound `CCSc1nc(N2CCOCC2)cc(C)c1C(=O)NCc1cc(F)cc(F)c1` [Example 1, N-[(3,5-Difluoro-phenyl)-methyl]-2-ethylsulfanyl-4-methyl-6-morpholin-4-yl-pyridine-3-carboxylic acid amide] had an inhibition in vivo at 4.64 mg/kg in the experiment on rat (dose 4.64 mg/kg, MPE = % of maximum possible effect) of 78%. For the same compound, on KCNQ2/3 channels (setting [1]), the Emax amounted to 160%. The EC50 at KCNQ2/3 channels (setting [2]) was found to be 56 nM.
With `CCSc1nc(N2CCOCC2)cc(C)c1C(=O)NCc1cccc(F)c1` [Example 2, 2-ethylsulfanyl-N-[(3-fluorophenyl)-methyl]-4-methyl-6-morpholin-4-yl-pyridine-3-carboxylic acid amide], the ED50 in the experiment with rat (ED50 at time of maximum efficacy) worked out at 4.3 mg/kg. Moreover, the Emax at KCNQ2/3 channels (setting [1]) amounted to 171%. Further, the EC50 at KCNQ2/3 channels (setting [2]) amounted to 134 nM.
Compound `CCSc1nc(N2CCOCC2)cc(C)c1C(=O)NCc1ccc(F)cc1` [Example 4, 2-Ethylsulfanyl-N-[(4-fluorophenyl)-methyl]-4-methyl-6-morpholin-4-yl-pyridine-3-carboxylic acid amide] returned an inhibition in vivo at 10 mg/kg in the experiment with rat (setting [3]) of 94%. In addition, the Emax on KCNQ2/3 channels (setting [1]) is 158%. The EC50 on KCNQ2/3 channels (setting [2]) stood at 124 nM.
Consider `CCCc1nc(N2CCOCC2)cc(C)c1C(=O)NCc1cccc(F)c1` [Example 10, N-[(3-Fluorophenyl)-methyl]-4-methyl-6-morpholin-4-yl-2-propyl-pyridine-3-carboxylic acid amide], for which the inhibition in vivo at 10 mg/kg in the experiment on rat (setting [3]) was 81%. Moreover, on KCNQ2/3 channels (setting [1]), the Emax was found to be 176%. The EC50 at KCNQ2/3 channels (setting [2]) amounted to 181 nM.
In the case of `COc1nc(N2CCOCC2)cc(C)c1C(=O)NCc1cccc(F)c1` [Example 19, N-[(3-Fluorophenyl)-methyl]-2-methoxy-4-methyl-6-morpholin-4-yl-pyridine-3-carboxylic acid amide], the inhibition in vivo at 10 mg/kg in the experiment on rat (setting [3]) is 79%. Further, the Emax at KCNQ2/3 channels (setting [1]) was 155%. The EC50 on KCNQ2/3 channels (setting [2]) was 736 nM.
As to `CCOc1nc(N2CCOCC2)cc(C)c1C(=O)NCc1cccc(F)c1` [Example 38, 2-Ethoxy-N-[(3-fluorophenyl)-methyl]-4-methyl-6-morpholin-4-yl-pyridine-3-carboxylic acid amide], testing at 10 mg/kg in the experiment with rat (setting [3]) gave an inhibition in vivo of 61%. Further, at KCNQ2/3 channels (setting [1]), the Emax is 144%. Also, the EC50 on KCNQ2/3 channels (setting [2]) is 219 nM.
In the experiment on rat (setting [3]), `CSc1nc(N2CCOCC2)cc(C)c1C(=O)NCc1cccc(F)c1` [Example 40, N-[(3-Fluorophenyl)-methyl]-4-methyl-2-methylsulfanyl-6-morpholin-4-yl-pyridine-3-carboxylic acid amide] came in with an inhibition in vivo at 10 mg/kg of 84%. For the same compound, the Emax on KCNQ2/3 channels (setting [1]) amounted to 168%. Further, the EC50 on KCNQ2/3 channels (setting [2]) was 587 nM.
For `CCSc1nc(N2CCOCC2)cc(C)c1C(=O)NCCCC1(C)COC1` [Example 343, 2-Ethylsulfanyl-4-methyl-N-[3-(3-methyl-oxetan-3-yl)-propyl]-6-morpholin-4-yl-pyridine-3-carboxylic acid amide], the Emax at KCNQ2/3 channels (setting [1]) was 163%. In addition, the EC50 at KCNQ2/3 channels (setting [2]) was found to be 6840 nM.
For `CCSc1nc(N2CCOCC2)cc(C)c1C(=O)NCC#CC(C)(C)C` [Example 344, N-(4,4-Dimethyl-pent-2-ynyl)-2-ethylsulfanyl-4-methyl-6-morpholin-4-yl-pyridine-3-carboxylic acid amide] the same measures were 253% and 41 nM.
On the same counts, the results for `CCSc1nc(N2C3CCC2COC3)cc(C)c1C(=O)NCc1cccc(F)c1` [Example 345, 2-Ethylsulfanyl-N-[(3-fluorophenyl)-methyl]-4-methyl-6-(3-oxa-8-azabicyclo[3.2.1]octan-8-yl)-pyridine-3-carboxylic acid amide] are 200% and 122 nM.
Take `CCSc1nc(N2CCOCC2)cc(COC)c1C(=O)NCc1cccc(F)c1` [Example 346, 2-Ethylsulfanyl-N-[(3-fluorophenyl)-methyl]-4-(methoxymethyl)-6-morpholin-4-yl-pyridine-3-carboxylic acid amide]: the Emax on KCNQ2/3 channels (setting [1]) came to 157%. In addition, at KCNQ2/3 channels (setting [2]), the EC50 was 729 nM.
`CCC(C)c1nc(N2CCOCC2)cc(C)c1C(=O)NCc1ccc(Cl)cc1` (centres unmarked) [Example 347, N-[(4-Chlorophenyl)-methyl]-4-methyl-2-(1-methyl-propyl)-6-morpholin-4-yl-pyridine-3-carboxylic acid amide]: the Emax on KCNQ2/3 channels (setting [1]) turned out to be 156%. Further, on KCNQ2/3 channels (setting [2]), the EC50 amounted to 41 nM.
As for `CCSc1nc(N2CCOCC2)cc(C)c1C(=O)NCCCC(C)(C)CC` [Example 348, N-(4,4-Dimethyl-hexyl)-2-ethylsulfanyl-4-methyl-6-morpholin-4-yl-pyridine-3-carboxylic acid amide], the Emax at KCNQ2/3 channels (setting [1]) came out at 228%. The EC50 at KCNQ2/3 channels (setting [2]) stood at 22 nM.
In the case of `COCCOc1nc(N2CCOCC2)cc(C)c1C(=O)NCCCC(C)(C)C` [Example 349, N-(4,4-Dimethyl-pentyl)-2-(2-methoxy-ethoxy)-4-methyl-6-morpholin-4-yl-pyridine-3-carboxylic acid amide], on KCNQ2/3 channels (setting [1]), the Emax worked out at 216%. On KCNQ2/3 channels (setting [2]), the EC50 worked out at 284 nM.
For `CCSc1nc(N2CCOCC2)cc(C)c1C(=O)NCCCC1(C)CC1` [Example 350, 2-Ethylsulfanyl-4-methyl-N-[3-(1-methyl-cyclopropyl)-propyl]-6-morpholin-4-yl-pyridine-3-carboxylic acid amide] the same measures were 226% and 79 nM.
For `COCc1cc(CNC(=O)c2c(C)cc(N3CCOCC3)nc2C2CC2)ccc1F` [Example 351, 2-Cyclopropyl-N-[[4-fluoro-3-(methoxymethyl)-phenyl]methyl]-4-methyl-6-morpholin-4-yl-pyridine-3-carboxylic acid amide], the Emax on KCNQ2/3 channels (setting [1]) was determined as 118%. The EC50 at KCNQ2/3 channels (setting [2]) stood at 489 nM.
On to `CCSc1nc(N2CCOC[C@H]2C)cc(C)c1C(=O)NCc1ccc(F)c(COC)c1` [Example 352, 2-Ethylsulfanyl-N-[[4-fluoro-3-(methoxymethyl)-phenyl]-methyl]-4-methyl-6-[(3R)-3-methyl-morpholin-4-yl]-pyridine-3-carboxylic acid amide], for which, at KCNQ2/3 channels (setting [1]), the Emax is 166%. Further, at KCNQ2/3 channels (setting [2]), the EC50 came to 287 nM.
Take `CCSc1nc(N2CCOCC2)cc(C)c1C(=O)NCc1ccc(F)c(CO)c1` [Example 353, 2-Ethylsulfanyl-N-[[4-fluoro-3-(hydroxymethyl)-phenyl]-methyl]-4-methyl-6-morpholin-4-yl-pyridine-3-carboxylic acid amide]: the Emax on KCNQ2/3 channels (setting [1]) was 46%.
For the compound `COCCCc1nc(N2CCOCC2)cc(C)c1C(=O)NCCCC(C)(C)C` [Example 354, N-(4,4-Dimethyl-pentyl)-2-(3-methoxy-propyl)-4-methyl-6-morpholin-4-yl-pyridine-3-carboxylic acid amide], on KCNQ2/3 channels (setting [1]), the Emax is 204%. Further, the EC50 on KCNQ2/3 channels (setting [2]) amounted to 1540 nM.
With `COCc1ccc(CNC(=O)c2c(C)cc(N3CCOCC3)nc2C2CC2)cc1F` [Example 355, 2-Cyclopropyl-N-[[3-fluoro-4-(methoxymethyl)-phenyl]methyl]-4-methyl-6-morpholin-4-yl-pyridine-3-carboxylic acid amide], the Emax at KCNQ2/3 channels (setting [1]) was 167%. For the same compound, the EC50 at KCNQ2/3 channels (setting [2]) was 721 nM.
As to `COCc1nc(N2CCOCC2)cc(C)c1C(=O)NCc1cccc(F)c1` [Example 356, N-[(3-Fluorophenyl)-methyl]-2-(methoxymethyl)-4-methyl-6-morpholin-4-yl-pyridine-3-carboxylic acid amide], the Emax on KCNQ2/3 channels (setting [1]) amounted to 140%. On KCNQ2/3 channels (setting [2]), the EC50 was found to be 6320 nM.
With `CC(C)c1cc(N2CCOCC2)nc(C(C)C)c1C(=O)NCc1ccc(Cl)cc1` [Example 357, N-[(4-Chlorophenyl)-methyl]-2,4-diisopropyl-6-morpholin-4-yl-pyridine-3-carboxylic acid amide], at KCNQ2/3 channels (setting [1]), the Emax was 17%.
`COCCc1nc(N2CCOCC2)cc(C)c1C(=O)NCCCC(C)(C)C` [Example 358, N-(4,4-Dimethyl-pentyl)-2-(2-methoxy-ethyl)-4-methyl-6-morpholin-4-yl-pyridine-3-carboxylic acid amide]: the EC50 at KCNQ2/3 channels came to 1130 nM. Moreover, at KCNQ2/3 channels (setting [4]), the Emax is 234%.
`CCc1cc(N2CCOCC2)nc(CC)c1C(=O)NCc1ccc(Cl)cc1` [Example 359, N-[(4-Chlorophenyl)-methyl]-2,4-diethyl-6-morpholin-4-yl-pyridine-3-carboxylic acid amide] came in with an EC50 on KCNQ2/3 channels of 237 nM. Besides, on KCNQ2/3 channels (setting [4]), the Emax came out at 141%.

By inhibition in vivo is commonly meant the drop in the measured response relative to a control, in per cent. A low value points to a response near the control. For orientation: ED50 means the dose that gives a 50% effect, or the effect in half of the subjects. Read a high ED50 as a need for a large dose.

For the origin of these results see patent US9168259B2 (GRÜNENTHAL GMBH, priority 2010, dated 2015).
